This note sets out measurements from patent US7772180B2, “Hepatitis C virus inhibitors” (Bristol-Myers Squibb Company, priority 2006, dated 2010).

The target in assay [1] is T1, HCV NS3/4A protease complex, BMS strain (UniProt P27958, species not given/STRAIN_BMS).
T1 construct: other: NS3/4A BMS strain; activity range class; numeric values, unit not given; said of H77 and J4L6S; fused on or other part: A three-lysine solubilising tail at the C-terminus of NS4A; A His tag is implied by the pET21b vector and Ni-NTA purification; Both are printed for the H77 and J4L6S constructs and apply to BMS by inference
T1 sequence (P27958 1027-1657, change not shown, one chain of several): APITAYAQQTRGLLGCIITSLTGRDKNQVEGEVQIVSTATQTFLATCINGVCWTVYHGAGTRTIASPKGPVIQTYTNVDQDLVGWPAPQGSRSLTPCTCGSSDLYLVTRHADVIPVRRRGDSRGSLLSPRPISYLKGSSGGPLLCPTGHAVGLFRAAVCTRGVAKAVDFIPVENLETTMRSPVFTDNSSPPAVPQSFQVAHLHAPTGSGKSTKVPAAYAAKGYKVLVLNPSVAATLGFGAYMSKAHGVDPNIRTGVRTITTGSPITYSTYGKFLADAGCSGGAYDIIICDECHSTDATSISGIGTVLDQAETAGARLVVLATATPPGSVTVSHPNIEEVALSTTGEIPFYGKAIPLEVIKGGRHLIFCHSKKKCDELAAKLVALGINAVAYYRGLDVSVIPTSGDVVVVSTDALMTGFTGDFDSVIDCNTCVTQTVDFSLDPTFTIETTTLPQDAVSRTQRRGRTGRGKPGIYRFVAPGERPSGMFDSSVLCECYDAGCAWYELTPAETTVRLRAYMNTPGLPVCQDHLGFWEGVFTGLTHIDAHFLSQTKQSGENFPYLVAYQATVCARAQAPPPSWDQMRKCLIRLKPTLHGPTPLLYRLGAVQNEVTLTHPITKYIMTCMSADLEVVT
Nature of the assay: FRET peptide assay to monitor HCV NS3/4A proteolytic activity (BMS strain). Type of assay: biochemical, Hepatitis C virus (genotype 1a). The text has this:
HCV NS3 protease complexes, derived from the BMS strain, H77 strain or J4L6S strain, were generated, as described below. These purified recombinant proteins were generated for use in a homogeneous assay (see below) to provide an indication of how effective compounds of the present disclosure would be in inhibiting HCV NS3 proteolytic activity.
Serum from an HCV-infected patient was obtained from Dr. T. Wright, San Francisco Hospital. An engineered full-length cDNA (compliment deoxyribonucleic acid) template of the HCV genome (BMS strain) was constructed from DNA fragments obtained by reverse transcription-PCR (RT-PCR) of serum RNA (ribonucleic acid) and using primers selected on the basis of homology between other genotype 1a strains. From the determination of the entire genome sequence, a genotype 1a was assigned to the HCV isolate according to the classification of Simmonds et al. (See P Simmonds, K A Rose, S Graham, S W Chan, F McOmish, B C Dow, E A Follett, P L Yap and H Marsden, J. Clin. Microbiol., 31(6), 1493-1503 (1993)). […] The infectious clones, H77 (1a genotype) and J4L6S (1b genotype) were obtained from R. Purcell (NIH) and the sequences are published in Genbank (AAB67036, see Yanagi, M., Purcell, R. H., Emerson, S. U. and Bukh, J. Proc. Natl. Acad. Sci. U.S.A. 94(16), 8738-8743 (1997); AF054247, see Yanagi, M., St Claire, M., Shapiro, M., Emerson, S. U., Purcell, R. H. and Bukh, J. Virology 244 (1), 161-172. (1998)).
NS3/4A protease complex-containing fractions were pooled and loaded on a desalting column Superdex-S200 pre-equilibrated with buffer D (25 mM HEPES, pH 7.5, 20% glycerol, 300 mM NaCl, 0.2% Triton X-100, 10 mM βME). Sample was loaded at a flow rate of 1 mL/min. NS3/4A protease complex-containing fractions were pooled and concentrated to approximately 0.5 mg/ml. The purity of the NS3/4A protease complexes, derived from the BMS, H77 and J4L6S strains, were judged to be greater than 90% by SDS-PAGE and mass spectrometry analyses. The enzyme was stored at −80° C., thawed on ice and diluted prior to use in assay buffer.
The purpose of this in vitro assay was to measure the inhibition of HCV NS3 protease complexes, derived from the BMS strain, H77 strain or J4L6S strain, as described above, by compounds of the present disclosure. This assay provides an indication of how effective compounds of the present disclosure would be in inhibiting HCV NS3 proteolytic activity.
In order to monitor HCV NS3/4A protease activity, an NS3/4A peptide substrate was used. The substrate was RET S1 (Resonance Energy Transfer Depsipeptide Substrate; AnaSpec, Inc. cat #22991) (FRET peptide), described by Taliani et al. in Anal. Biochem. 240(2):60-67 (1996). The sequence of this peptide is loosely based on the NS4A/NS4B natural cleavage site for the HCV NS3 protease except there is an ester linkage rather than an amide bond at the cleavage site. The peptide also contains a fluorescence donor, EDANS, near one end of the peptide and an acceptor, DABCYL, near the other end. The fluorescence of the peptide is quenched by […] resonance energy transfer (RET) between the donor and the acceptor, but as the NS3 protease cleaves the peptide the products are released from RET quenching and the fluorescence of the donor becomes apparent.
The peptide substrate was incubated with one of the three recombinant NS3/4A protease complexes, in the absence or presence of a compound of the present disclosure. The inhibitory effects of a compound were determined by monitoring the formation of fluorescent reaction product in real time using a Cytofluor Series 4000.
Assay buffer: 50 mM HEPES, pH 7.5; 0.15 M NaCl; 0.1% Triton; 15% Glycerol; 10 mM βME. Substrate: 2 μM final concentration (from a 2 mM stock solution in DMSO stored at −20° C.). HCV NS3/4A protease type 1a (1b), 2-3 nM final concentration (from a 5 μM stock solution in 25 mM HEPES, pH 7.5, 20% glycerol, 300 mM NaCl, 0.2% Triton-X100, 10 mM βME). […]

In assay [2] the test system is HCV replicon (strain 1b) in HUH-7 cells. Nature of the assay: HCV replicon FRET assay. The class given is cell-based, Hepatitis C virus. An excerpt: An HCV replicon whole cell system was established as described by Lohmann V, Korner F, Koch J, Herian U, Theilmann L, Bartenschlager R., Science 285(5424): 110-3 (1999). This system enabled us to evaluate the effects of our HCV Protease compounds on HCV RNA replication. Briefly, using the HCV strain 1b sequence described in the Lohmann paper (Assession number: AJ238799), an HCV cDNA was synthesized by Operon Technologies, Inc. (Alameda, Calif.), and the full-length replicon was then assembled in plasmid pGem9zf(+) (Promega, Madison, Wis.) using standard molecular biology techniques. The replicon consists of (i) the HCV 5′ UTR fused to the first 12 amino acids of the capsid protein, (ii) the neomycin phosphotransferase gene (neo), (iii) the IRES from encephalomyocarditis virus (EMCV), and (iv) HCV NS3 to NS5B genes and the HCV 3′ UTR. Plasmid DNAs were linearized with ScaI and RNA transcripts were synthesized in vitro using the T7 MegaScript transcription kit (Ambion, Austin, Tex.) according to manufacturer's directions. In vitro transcripts of the cDNA were transfected into the human hepatoma cell line, HUH-7. […] Resulting cell lines were characterized for positive and negative strand RNA production and protein production over time.
The HCV replicon FRET assay was developed to monitor the inhibitory effects of compounds described in the disclosure on HCV viral replication. HUH-7 cells, constitutively expressing the HCV replicon, were grown in Dulbecco's Modified Eagle Media (DMEM) (Gibco-BRL) containing 10% Fetal calf serum (FCS) (Sigma) and 1 mg/ml G418 (Gibco-BRL). Cells were seeded the night before (1.5×10^4 cells/well) in 96-well tissue-culture sterile plates. Compound and no compound controls were prepared in DMEM containing 4% FCS, 1:100 Penicillin/Streptomysin (Gibco-BRL), 1:100 L-glutamine and 5% DMSO in the dilution plate (0.5% DMSO final concentration in the assay). Compound/DMSO mixes were added to the cells and incubated for 4 days at 37° C. After 4 days, cells were first assessed for cytotoxicity using alamar Blue (Trek Diagnotstic Systems) for a CC50 reading. The toxicity of compound (CC50) was determined by adding 1/10th volume of alamarBlue to the media incubating the cells. After 4 hours, the fluorescence signal from each well was read, with an excitation wavelength at 530 nm and an emission wavelength of 580 nm, using the Cytofluor Series 4000 (Perspective Biosystems). Plates were then rinsed thoroughly with Phosphate-Buffered Saline (PBS) (3 times 150 μl).
(In general: Replicon systems follow genome replication, usually without infectious particles.)

Setting [3] is: read-out: HCV Protease (IC50); NS3/4A BMS strain; activity range class.
Where [4] appears, read: Hepatitis C virus, Huh-7, read-out: HCV Pro Replicon (EC50), HCV replicon cell assay, activity range class.

Read-outs that look alike come from different tables or passages of the source.

Regarding `C=C[C@@H]1C[C@]1(NC(=O)[C@@H]1C[C@@H](Oc2ncc(OC)c3ccc(Cl)cc23)CN1C(=O)[C@@H](Nc1cccc(C(=O)NC(C)(C)c2ccccc2)c1)C(C)(C)C)C(=O)NS(=O)(=O)C1CC1` (single isomer, unassigned; isomer 3) [216 first isomer], the 50% inhibitory concentration (IC50) (as a rule, the concentration at which inhibition is half-maximal) in assay [1] (NS3/4A BMS strain; activity range class; read-out: HCV Protease (IC50)) lay within 0.0006 to 0.02 µM. Moreover, the half-maximal effective concentration (EC50) (as a rule, the concentration giving half of the maximal effect) in assay [2] (HCV replicon cell assay, activity range class, read-out: HCV Pro Replicon (EC50)) lay in the range of 0.003 to 0.1 µM.
Regarding `C=C[C@@H]1C[C@]1(NC(=O)[C@@H]1C[C@@H](Oc2nccc3cc(OC)ccc23)CN1C(=O)C(Nc1cc(C)ccn1)C(C)C)C(=O)NS(=O)(=O)C1CC1` (single isomer, unassigned) [Compound 10], in assay [1] (setting [3]), the 50% inhibitory concentration (IC50) was 0.0006 to 0.02 µM. In addition, the half-maximal effective concentration (EC50) in assay [2] (setting [4]) fell in the range of 0.003 to 0.1 µM.
The matching figures for `C=C[C@@H]1C[C@]1(NC(=O)[C@@H]1C[C@@H](Oc2ncc(OC)c3ccc(Cl)cc23)CN1C(=O)[C@H](Nc1ccc(C(=O)N(C)C)cc1)C(C)(C)C)C(=O)NS(=O)(=O)C1CC1` [221 second isomer, N-(4-(dimethylcarbamoyl)phenyl)-3-methyl-D-valyl-(4R)-4-((7-chloro-4-methoxy-1-isoquinolinyl)oxy)-N-((1R,2S)-1-((cyclopropylsulfonyl)carbamoyl)-2-vinylcyclopropyl)-L-prolinamide]: 0.02 to 0.2 µM and above 1 µM.
Turning to `C=C[C@@H]1C[C@]1(NC(=O)[C@@H]1C[C@@H](Oc2nc(-c3ccc(OC(F)(F)F)cc3)cc3cc(OC)ccc23)CN1C(=O)[C@@H](NC1=NCCCS1)C(C)(C)C)C(=O)NS(=O)(=O)C1CC1` [Compound 37, N-(5,6-dihydro-4H-1,3-thiazin-2-yl)-3-methyl-L-valyl-(4R)—N-((1R,2S)-1-((cyclopropylsulfonyl)carbamoyl)-2-vinylcyclopropyl)-4-((6-methoxy-3-(4-(trifluoromethoxy)phenyl)-1-isoquinolinyl)oxy)-L-prolinamide], in assay [1] (setting [3]), the half-inhibitory concentration (IC50) was 0.0006 to 0.02 µM. Further, the EC50 in assay [2] (setting [4]) fell in the range of 0.003 to 0.1 µM.
In the case of `C=C[C@@H]1C[C@]1(NC(=O)[C@@H]1C[C@@H](Oc2ncc(OC)c3ccc(Cl)cc23)CN1C(=O)C(Nc1cc(Cl)cc(Cl)n1)C(C)(C)C)C(=O)NS(=O)(=O)C1CC1` (single isomer, unassigned) [Compound 32B], the half-maximal inhibitory concentration (IC50) in assay [1] (setting [3]) is above 0.2 µM. Further, the concentration for a half-maximal effect (EC50) in assay [2] (setting [4]) was above 1 µM.
On the same counts, the results for `C=C[C@@H]1C[C@]1(NC(=O)[C@@H]1C[C@@H](Oc2ncc(OC)c3ccc(Cl)cc23)CN1C(=O)C(C)Nc1n[s+]([O-])nc1OCC)C(=O)NS(=O)(=O)C1CC1` (stereo partly shown) [Compound 237] are above 0.2 µM and above 1 µM.
`C=C[C@@H]1C[C@]1(NC(=O)[C@@H]1C[C@@H](Oc2nc(OC)cc3cc(OC)ccc23)CN1C(=O)C(Nc1ccccc1)C(C)(C)C)C(=O)NS(=O)(=O)C1CC1` (single isomer, unassigned) [20 first isomer]: the IC50 in assay [1] (setting [3]) is 0.0006 to 0.02 µM. Also, the EC50 in assay [2] (read-out: HCV Pro Replicon (EC50), HCV replicon cell assay, activity range class) was in the range of 0.003 to 0.1 µM.
For the molecule `C=C[C@@H]1C[C@]1(NC(=O)[C@@H]1C[C@@H](Oc2ncc(OC)c3ccc(Cl)cc23)CN1C(=O)[C@@H](Nc1cccc(C(=O)N(C)C)c1)C(C)(C)C)C(=O)NS(=O)(=O)C1CC1` [218 first isomer, N-(3-(dimethylcarbamoyl)phenyl)-3-methyl-L-valyl-(4R)-4-((7-chloro-4-methoxy-1-isoquinolinyl)oxy)-N-((1R,2S)-1-((cyclopropylsulfonyl)carbamoyl)-2-vinylcyclopropyl)-L-prolinamide], the IC50 in assay [1] (setting [3]) is 0.0006 to 0.02 µM. Also, the EC50 in assay [2] (setting [4]) was 0.003 to 0.1 µM.
As to `C=C[C@@H]1C[C@]1(NC(=O)[C@@H]1C[C@@H](Oc2nc(N(C)C)cc3c(OC)cccc23)CN1C(=O)C(Nc1cccc(C)n1)C(C)(C)C)C(=O)NS(=O)(=O)C1CC1` (single isomer, unassigned) [Compound 38B], in assay [1] (read-out: HCV Protease (IC50); NS3/4A BMS strain; numeric values, unit inferred), the IC50 stood at 5 µM. For the same molecule, the EC50 in assay [2] (Hepatitis C virus, Huh-7, read-out: HCV Pro Replicon (EC50), HCV replicon cell assay, numeric values, unit inferred) came out at 7.71 µM.
On to `C=C[C@@H]1C[C@]1(NC(=O)[C@@H]1C[C@@H](Oc2ncc(OC)c3ccc(Cl)cc23)CN1C(=O)[C@@H](Nc1ccc(C(N)=O)cc1)C(C)(C)C)C(=O)NS(=O)(=O)C1CC1` [226 first isomer, N-(4-carbamoylphenyl)-3-methyl-L-valyl-(4R)-4-((7-chloro-4-methoxy-1-isoquinolinyl)oxy)-N-((1R,2S)-1-((cyclopropylsulfonyl)carbamoyl)-2-vinylcyclopropyl)-L-prolinamide], for which the IC50 in assay [1] (setting [3]) was 0.0006 to 0.02 µM. Further, the EC50 in assay [2] (setting [4]) was 0.003 to 0.1 µM.
In the case of `C=C[C@@H]1C[C@]1(NC(=O)[C@@H]1C[C@@H](Oc2ncc(OC)c3ccc(Cl)cc23)CN1C(=O)[C@@H](Nc1ccc(F)c(F)c1)C(C)(C)C)C(=O)NS(=O)(=O)C1CC1` [220 first isomer, N-(3,4-difluorophenyl)-3-methyl-L-valyl-(4R)-4-((7-chloro-4-methoxy-1-isoquinolinyl)oxy)-N-((1R,2S)-1-((cyclopropylsulfonyl)carbamoyl)-2-vinylcyclopropyl)-L-prolinamide], the IC50 in assay [1] (setting [3]) was in the range of 0.0006 to 0.02 µM. Moreover, the EC50 in assay [2] (setting [4]) fell in the range of 0.003 to 0.1 µM.
